# Test results published in PubChem BioAssay (NCI).
#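 Dose response: 5 concentrations. Exposure: 48 h. Format: 96-well plates. Endpoint: linear interpolation; highest concentration if not reached. The concentration for full growth arrest is given as TGI.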
# Columns and labels:
# Assay in all cases: NCI-60 cell line screen, 48 h
# 786-0 renal = system: 786-0 renal
# A498 renal = system: A498 renal
# A549 NSCLC = system: A549 NSCLC
# ACHN renal = system: ACHN renal
# BT-549 breast = system: BT-549 breast
# CAKI-1 renal = system: CAKI-1 renal
# CCRF-CEM leukemia = system: CCRF-CEM leukemia
# COLO 205 colon = system: COLO 205 colon
# DU-145 prostate = system: DU-145 prostate
# EKVX NSCLC = system: EKVX NSCLC
# HCC-2998 colon = system: HCC-2998 colon
# HCT-116 colon = system: HCT-116 colon
# HCT-15 colon = system: HCT-15 colon
# HL-60(TB) leukemia = system: HL-60(TB) leukemia
# HOP-62 NSCLC = system: HOP-62 NSCLC
# HOP-92 NSCLC = system: HOP-92 NSCLC
# HS 578T breast = system: HS 578T breast
# HT29 colon = system: HT29 colon
# IGROV1 ovarian = system: IGROV1 ovarian
# K-562 leukemia = system: K-562 leukemia
# KM12 colon = system: KM12 colon
# LOX IMVI melanoma = system: LOX IMVI melanoma
# M14 melanoma = system: M14 melanoma
# MALME-3M melanoma = system: MALME-3M melanoma
# MCF7 breast = system: MCF7 breast
# MDA-MB-231 breast = system: MDA-MB-231 breast
# MDA-MB-435 = system: MDA-MB-435
# MDA-N = system: MDA-N
# MOLT-4 leukemia = system: MOLT-4 leukemia
# NCI-H226 lung = system: NCI-H226 lung
# NCI-H23 lung = system: NCI-H23 lung
# NCI-H460 lung = system: NCI-H460 lung
# NCI-H522 lung = system: NCI-H522 lung
# NCI/ADR-RES ovarian = system: NCI/ADR-RES ovarian
# OVCAR-3 ovarian = system: OVCAR-3 ovarian
# OVCAR-4 ovarian = system: OVCAR-4 ovarian
# OVCAR-5 ovarian = system: OVCAR-5 ovarian
# OVCAR-8 ovarian = system: OVCAR-8 ovarian
# PC-3 prostate = system: PC-3 prostate
# RPMI-8226 leukemia = system: RPMI-8226 leukemia
# RXF 393 renal = system: RXF 393 renal
# SF-268 CNS = system: SF-268 CNS
# SF-295 CNS = system: SF-295 CNS
# SF-539 CNS = system: SF-539 CNS
# SK-MEL-2 melanoma = system: SK-MEL-2 melanoma
# SK-MEL-28 melanoma = system: SK-MEL-28 melanoma
# SK-MEL-5 melanoma = system: SK-MEL-5 melanoma
# SK-OV-3 ovarian = system: SK-OV-3 ovarian
# SN12C renal = system: SN12C renal
# SNB-19 CNS = system: SNB-19 CNS
# SNB-75 CNS = system: SNB-75 CNS
# SR leukemia = system: SR leukemia
# SW-620 colon = system: SW-620 colon
# T-47D breast = system: T-47D breast
# TK-10 renal = system: TK-10 renal
# U251 CNS = system: U251 CNS
# UACC-257 melanoma = system: UACC-257 melanoma
# UACC-62 melanoma = system: UACC-62 melanoma
# UO-31 renal = system: UO-31 renal
compound,measurement,setting,value
Cc1cccc2c1CC(C1OC(=O)c3ccccc31)C2=O (stereo not drawn),TGI,786-0 renal,> 100 µM
same,TGI,A498 renal,> 100 µM
same,TGI,A549 NSCLC,> 100 µM
same,TGI,ACHN renal,> 100 µM
same,TGI,BT-549 breast,> 100 µM
same,TGI,CAKI-1 renal,> 100 µM
same,TGI,CCRF-CEM leukemia,> 100 µM
same,TGI,COLO 205 colon,> 100 µM
same,TGI,DU-145 prostate,> 100 µM
same,TGI,EKVX NSCLC,> 100 µM
same,TGI,HCC-2998 colon,> 100 µM
same,TGI,HCT-116 colon,> 100 µM
same,TGI,HCT-15 colon,> 100 µM
same,TGI,HL-60(TB) leukemia,> 100 µM
same,TGI,HOP-62 NSCLC,> 100 µM
same,TGI,HOP-92 NSCLC,> 100 µM
same,TGI,HS 578T breast,> 100 µM
same,TGI,HT29 colon,> 100 µM
same,TGI,IGROV1 ovarian,> 100 µM
same,TGI,K-562 leukemia,> 100 µM
same,TGI,KM12 colon,> 100 µM
same,TGI,LOX IMVI melanoma,> 100 µM
same,TGI,M14 melanoma,> 100 µM
same,TGI,MALME-3M melanoma,> 100 µM
same,TGI,MCF7 breast,> 100 µM
same,TGI,MDA-MB-231 breast,> 100 µM
same,TGI,MDA-MB-435,> 100 µM
same,TGI,MDA-N,> 100 µM
same,TGI,MOLT-4 leukemia,> 100 µM
same,TGI,NCI-H226 lung,> 100 µM
same,TGI,NCI-H23 lung,> 100 µM
same,TGI,NCI-H460 lung,> 100 µM
same,TGI,NCI-H522 lung,> 100 µM
same,TGI,NCI/ADR-RES ovarian,> 100 µM
same,TGI,OVCAR-3 ovarian,> 100 µM
same,TGI,OVCAR-4 ovarian,> 100 µM
same,TGI,OVCAR-5 ovarian,> 100 µM
same,TGI,OVCAR-8 ovarian,> 100 µM
same,TGI,PC-3 prostate,> 100 µM
same,TGI,RPMI-8226 leukemia,> 100 µM
same,TGI,RXF 393 renal,> 100 µM
same,TGI,SF-268 CNS,> 100 µM
same,TGI,SF-295 CNS,> 100 µM
same,TGI,SF-539 CNS,> 100 µM
same,TGI,SK-MEL-2 melanoma,> 100 µM
same,TGI,SK-MEL-28 melanoma,> 100 µM
same,TGI,SK-MEL-5 melanoma,> 100 µM
same,TGI,SK-OV-3 ovarian,> 100 µM
same,TGI,SN12C renal,> 100 µM
same,TGI,SNB-19 CNS,> 100 µM
same,TGI,SNB-75 CNS,> 100 µM
same,TGI,SR leukemia,> 100 µM
same,TGI,SW-620 colon,> 100 µM
same,TGI,T-47D breast,> 100 µM
same,TGI,TK-10 renal,> 100 µM
same,TGI,U251 CNS,> 100 µM
same,TGI,UACC-257 melanoma,> 100 µM
same,TGI,UACC-62 melanoma,> 100 µM
same,TGI,UO-31 renal,> 100 µM
NCCc1c[nH]c2ccc(OC(=O)C(=O)O)cc12,TGI,786-0 renal,> 100 µM
same,TGI,A498 renal,> 100 µM
same,TGI,A549 NSCLC,> 100 µM
same,TGI,ACHN renal,> 100 µM
same,TGI,BT-549 breast,> 100 µM
same,TGI,CAKI-1 renal,> 100 µM
same,TGI,CCRF-CEM leukemia,> 100 µM
same,TGI,COLO 205 colon,> 100 µM
same,TGI,DU-145 prostate,> 100 µM
same,TGI,EKVX NSCLC,> 100 µM
same,TGI,HCC-2998 colon,> 100 µM
same,TGI,HCT-116 colon,> 100 µM
same,TGI,HCT-15 colon,> 100 µM
same,TGI,HL-60(TB) leukemia,23.2 µM
same,TGI,HOP-62 NSCLC,> 100 µM
same,TGI,HOP-92 NSCLC,> 100 µM
same,TGI,HS 578T breast,> 100 µM
same,TGI,HT29 colon,> 100 µM
same,TGI,IGROV1 ovarian,> 100 µM
same,TGI,K-562 leukemia,> 100 µM
same,TGI,KM12 colon,> 100 µM
same,TGI,LOX IMVI melanoma,> 100 µM
same,TGI,M14 melanoma,> 100 µM
same,TGI,MALME-3M melanoma,> 100 µM
same,TGI,MCF7 breast,> 100 µM
same,TGI,MDA-MB-231 breast,> 100 µM
same,TGI,MDA-MB-435,> 100 µM
same,TGI,MDA-N,> 100 µM
same,TGI,MOLT-4 leukemia,> 100 µM
same,TGI,NCI-H226 lung,> 100 µM
same,TGI,NCI-H23 lung,> 100 µM
same,TGI,NCI-H460 lung,> 100 µM
same,TGI,NCI-H522 lung,> 100 µM
same,TGI,NCI/ADR-RES ovarian,> 100 µM
same,TGI,OVCAR-3 ovarian,> 100 µM
same,TGI,OVCAR-4 ovarian,> 100 µM
same,TGI,OVCAR-5 ovarian,> 100 µM
same,TGI,OVCAR-8 ovarian,> 100 µM
same,TGI,PC-3 prostate,> 100 µM
same,TGI,RPMI-8226 leukemia,> 100 µM
same,TGI,RXF 393 renal,> 100 µM
same,TGI,SF-268 CNS,> 100 µM
same,TGI,SF-295 CNS,> 100 µM
same,TGI,SF-539 CNS,> 100 µM
same,TGI,SK-MEL-2 melanoma,> 100 µM
same,TGI,SK-MEL-28 melanoma,> 100 µM
same,TGI,SK-MEL-5 melanoma,> 100 µM
same,TGI,SK-OV-3 ovarian,> 100 µM
same,TGI,SN12C renal,> 100 µM
same,TGI,SNB-19 CNS,> 100 µM
same,TGI,SNB-75 CNS,> 100 µM
same,TGI,SR leukemia,> 100 µM
same,TGI,SW-620 colon,> 100 µM
same,TGI,T-47D breast,> 100 µM
same,TGI,TK-10 renal,> 100 µM
same,TGI,U251 CNS,> 100 µM
same,TGI,UACC-257 melanoma,> 100 µM
same,TGI,UACC-62 melanoma,> 100 µM
same,TGI,UO-31 renal,> 100 µM
